From patent publication US9790221B2, “Heteroaryl compounds as IRAK inhibitors and uses thereof” (Merck Patent GmbH, priority 2014, dated 2017)
Counter-ions that a name gives are not always drawn.

Key:
[1] = molecular target: IRAK1 (His-TEV-IRAK1 (194-712)) (Homo sapiens (Human), UniProt P51617); experiment: IRAK1 enzymatic assay; format: biochemical
Description: IRAK1 is a human purified recombinant enzyme (His-TEV-IRAK1 (194-712)). In this assay, IRAK-1 hydrolyses ATP and autophosphorylates. Measurement of IRAK-1 inhibition was performed in streptavidin coated 384well FlashPlate (PerkinElmer #SMP410A).
His-TEV-IRAK-1 (15 ng/well), ATP (1 μM, [33P]ATP 0.25 μCi/well) and compounds in DMSO (range of concentrations from 20 µM to 1 nM) or controls (2% DMSO) were incubated for 3 hours at 30° C. in assay buffer: Hepes pH7.0 50 mM, Fatty acid-free BSA 0.1%, Dithiothreitol DTT 2 mM, MgCl2 10 mM, EGTA 0.5 mM, Triton-X-100 0.01%. Kinase reaction was stopped by addition of EDTA. Supernatant was discarded, plates were washed three times with 150 mM NaCl and radioactivity was then measured in a Microbeta Trilux reader.

IRAK4 = IRAK4 (Homo sapiens (Human), UniProt Q9NWZ3); experiment: IRAK4 enzymatic assay; format: biochemical
Description: IRAK4 is a human purified recombinant enzyme ([…]. IRAK4 hydrolyses ATP, autophosphorylates and phosphorylates a Serine/Threonine generic peptidic substrate (STK: 61ST1BLC from CisBio International based in Bagnols/Cèze FR).
Measurement of IRAK-4 inhibition was performed in streptavidin coated 384well FlashPlate (PerkinElmer #SMP410A). His-TEV-IRAK4 (20 ng/well), ATP (2 μM, [^33P]ATP 0.25 µCi/well), STK1-biotin peptide (300 nM) and compounds in DMSO (range of concentrations from 20 µM to 1 nM) or controls (2% DMSO) were incubated for 3 hours at 30° C. in assay buffer: Hepes pH7.0 50 mM, Fatty acid-free BSA 0.1%, Dithiothreitol DTT 2 mM, MgCl2 10 mM, EGTA 0.5 mM, Tween-20 0.01%, MnCl2 5 mM.
Kinase reaction was stopped by addition of EDTA. Supernatant was discarded, plates were washed three times with 150 mM NaCl and radioactivity was then measured in a Microbeta Trilux reader.

Sequence of IRAK4 (Q9NWZ3 whole entry): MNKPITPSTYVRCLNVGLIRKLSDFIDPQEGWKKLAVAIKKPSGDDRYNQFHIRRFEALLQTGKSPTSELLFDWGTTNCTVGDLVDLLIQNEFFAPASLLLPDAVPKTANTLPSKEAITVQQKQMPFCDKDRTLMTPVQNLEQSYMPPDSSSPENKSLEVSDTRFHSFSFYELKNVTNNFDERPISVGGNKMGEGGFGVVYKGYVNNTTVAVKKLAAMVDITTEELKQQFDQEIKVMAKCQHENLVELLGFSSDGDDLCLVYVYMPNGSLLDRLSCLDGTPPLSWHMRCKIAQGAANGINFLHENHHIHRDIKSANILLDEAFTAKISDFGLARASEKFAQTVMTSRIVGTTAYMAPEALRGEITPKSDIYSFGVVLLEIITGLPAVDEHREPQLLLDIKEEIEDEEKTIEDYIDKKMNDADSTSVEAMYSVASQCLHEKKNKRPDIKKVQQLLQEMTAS
Sequence of IRAK1 (His-TEV-IRAK1 (194-712)) (P51617 194-712): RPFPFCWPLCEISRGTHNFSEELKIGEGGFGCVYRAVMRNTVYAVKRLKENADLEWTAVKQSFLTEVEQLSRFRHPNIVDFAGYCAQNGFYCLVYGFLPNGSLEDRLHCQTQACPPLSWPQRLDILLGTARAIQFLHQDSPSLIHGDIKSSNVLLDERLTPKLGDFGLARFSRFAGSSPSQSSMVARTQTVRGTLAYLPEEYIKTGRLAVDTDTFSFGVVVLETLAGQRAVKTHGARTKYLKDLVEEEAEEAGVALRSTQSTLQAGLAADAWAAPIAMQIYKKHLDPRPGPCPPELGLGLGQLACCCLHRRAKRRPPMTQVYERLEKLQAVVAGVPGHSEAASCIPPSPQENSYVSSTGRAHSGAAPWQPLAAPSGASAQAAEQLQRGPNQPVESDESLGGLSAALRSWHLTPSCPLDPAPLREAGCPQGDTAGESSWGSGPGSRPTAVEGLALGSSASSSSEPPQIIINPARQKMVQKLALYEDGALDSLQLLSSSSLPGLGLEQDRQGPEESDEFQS

SMILES: Cn1cc(-c2cccc(-c3ncc(-c4ccn(C)n4)c(N[C@H]4CCC[C@@H]4O)n3)c2)cn1 (racemic) [Example 95]
- IC50 [1]: > 5000 nM
- IC50 (IRAK4): < 100 nM

SMILES: Cn1cc(-c2cccc(-c3ncc(-c4ccn(C)n4)c(NC[C@H]4CCNC[C@H]4O)n3)c2)cn1 (racemic) [Example 116]
- IC50 [1]: > 5000 nM
- IC50 (IRAK4): 100 to 1000 nM

SMILES: Cn1cc(-c2cccc(-c3ncc(-c4cnn(C)c4)c(NC[C@H]4CCNC[C@H]4O)n3)c2)cn1 (racemic) [Example 126]
- IC50 [1]: > 5000 nM
- IC50 (IRAK4): 100 to 1000 nM

SMILES: Cn1cc(-c2cccc(-c3ncc(-c4cnn(C)c4)c(NC[C@H]4CC[C@@H](O)C4)n3)c2)cn1 (racemic) [Example 164]
- IC50 [1]: 1000 to 5000 nM
- IC50 (IRAK4): < 100 nM

SMILES: Cn1cc(-c2cccc(-c3ncc(-c4cnn(C)c4)c(NC[C@H]4CC[C@H](O)C4)n3)c2)cn1 (racemic) [Example 165]
- IC50 [1]: 100 to 1000 nM
- IC50 (IRAK4): < 100 nM

SMILES: Cn1cc(-c2cccc(-c3ncc(-c4cnn(C)c4)c(NCC4CCOC4)n3)c2)cn1 (racemic) [Example 166]
- IC50 [1]: 100 to 1000 nM
- IC50 (IRAK4): < 100 nM

SMILES: Cn1cc(-c2cccc(-c3ncc(-c4cnn(C)c4)c(N[C@@H]4CC[C@H](NS(C)(=O)=O)C4)n3)c2)cn1 (racemic) [Example 176]
- IC50 [1]: 1000 to 5000 nM
- IC50 (IRAK4): < 100 nM

SMILES: CC(=O)N[C@@H]1CCC[C@@H]1CNc1nc(-c2cccc(-c3cnn(C)c3)c2)ncc1-c1cnn(C)c1 (relative stereo) [Example 206, N-[(Cis)-2-({5-(1-Methyl-1H-pyrazol-4-yl)-2-[3-(1-methyl-1H-pyrazol-4-yl)-phenyl]-pyrimidin-4-ylamino}-methyl)-cyclopentyl]-acetamide]
- IC50 [1]: > 5000 nM
- IC50 (IRAK4): 100 to 1000 nM

SMILES: Cn1cc(-c2cccc(-c3ccc(-c4cnn(C5CCNCC5)c4)cn3)n2)cn1 [Example 2, 6′-(1-Methyl-1H-pyrazol-4-yl)-5-(1-piperidin-4-yl-1H-pyrazol-4-yl)-[2,2′]bipyridinyl]
- IC50 [1]: 1000 to 5000 nM
- IC50 (IRAK4): 100 to 1000 nM

SMILES: Cn1cc(-c2cccc(-c3ncc(-c4cnn(C)c4)c(NCC4CCCN(C(=O)OC(C)(C)C)C4)n3)c2)cn1 (centres unmarked) [Example 3, 3-({5-(1-Methyl-1H-pyrazol-4-yl)-2-[3-(1-methyl-1H-pyrazol-4-yl)-phenyl]-pyrimidin-4-ylamino}-methyl)-piperidine-1-carboxylic Acid Tert-Butyl Ester]
- IC50 [1]: 1000 to 5000 nM

SMILES: Cn1cc(-c2cccc(-c3ncc(-c4cnn(C)c4)c(NCC4CCCNC4)n3)c2)cn1 (centres unmarked) [Example 4, {5-(1-Methyl-1H-pyrazol-4-yl)-2-[3-(1-methyl-1H-pyrazol-4-yl)-phenyl]-pyrimidin-4-yl}-piperidin-3-ylmethyl-amine Hydrochloride]
- IC50 [1]: 1000 to 5000 nM
- IC50 (IRAK4): 1000 to 5000 nM

SMILES: Cn1cc(-c2cccc(-c3ncc(-c4cnn(C)c4)c(N4CCCC(CNC(=O)OC(C)(C)C)C4)n3)c2)cn1 (centres unmarked) [Example 5, (1-{5-(1-Methyl-1H-pyrazol-4-yl)-2-[3-(1-methyl-1H-pyrazol-4-yl)-phenyl]-pyrimidin-4-yl}-piperidin-3-ylmethyl)-carbamic Acid Tert-Butyl Ester]
- IC50 [1]: 1000 to 5000 nM
- IC50 (IRAK4): > 5000 nM

SMILES: Cn1cc(-c2cccc(-c3ncc(-c4cnn(C)c4)c(N4CCCC(CN)C4)n3)c2)cn1 (centres unmarked) [Example 6, C-(1-{5-(1-Methyl-1H-pyrazol-4-yl)-2-[3-(1-methyl-1H-pyrazol-4-yl)-phenyl]-pyrimidin-4-yl}-piperidin-3-yl)-methylamine Hydrochoride]
- IC50 [1]: > 5000 nM
- IC50 (IRAK4): 1000 to 5000 nM

SMILES: Cn1cc(-c2cccc(-c3ncc(-c4ccn(C)n4)c(OCC4CCCCO4)n3)c2)cn1 (centres unmarked) [Example 8, 5-(1-Methyl-1H-pyrazol-3-yl)-2-[3-(1-methyl-1H-pyrazol-4-yl)-phenyl]-4-(tetrahydro-pyran-2-ylmethoxy)-pyrimidine]
- IC50 [1]: > 5000 nM
- IC50 (IRAK4): 1000 to 5000 nM

SMILES: Cn1cc(-c2cccc(-c3ncc(-c4ccn(C)n4)c(NCC4CCNCC4)n3)c2)cn1 [Example 12, {5-(1-Methyl-1H-pyrazol-3-yl)-2-[3-(1-methyl-1H-pyrazol-4-yl)-phenyl]-pyrimidin-4-yl}-piperidin-4-ylmethyl-amine]
- IC50 [1]: > 5000 nM
- IC50 (IRAK4): > 5000 nM

SMILES: Cn1cc(-c2cccc(-c3ncc(-c4cnn(C)c4)c(NC4CCN(S(C)(=O)=O)CC4)n3)c2)cn1 [Example 14, (1-Methanesulfonyl-piperidin-4-yl)-{5-(1-methyl-1H-pyrazol-4-yl)-2-[3-(1-methyl-1H-pyrazol-4-yl)-phenyl]-pyrimidin-4-yl}-amine]
- IC50 [1]: < 100 nM
- IC50 (IRAK4): < 100 nM

SMILES: Cn1cc(-c2cccc(-c3cc(C(F)(F)F)c(-c4cnn(C5CCOCC5)c4)cn3)c2)cn1 [Example 23, 2-[3-(1-Methyl-1H-pyrazol-4-yl)-phenyl]-5-[1-(tetrahydro-pyran-4-yl)-1H-pyrazol-4-yl]-4-trifluoromethyl-pyridine]
- IC50 [1]: > 5000 nM
- IC50 (IRAK4): 1000 to 5000 nM

SMILES: Cc1cc(-c2cccc(-c3cnn(C)c3)c2)ncc1-c1cnn(C2CCOCC2)c1 [Example 24, 4-Methyl-2-[3-(1-methyl-1H-pyrazol-4-yl)-phenyl]-5-[1-(tetrahydro-pyran-4-yl)-1H-pyrazol-4-yl]-pyridine]
- IC50 [1]: > 5000 nM
- IC50 (IRAK4): 1000 to 5000 nM

SMILES: Cn1cc(-c2cccc(-c3ncc(-c4cnn(C)c4)c(NCC(N)=O)n3)c2)cn1 [Example 25, 2-{5-(1-Methyl-1H-pyrazol-4-yl)-2-[3-(1-methyl-1H-pyrazol-4-yl)-phenyl]-pyrimidin-4-ylamino}-acetamide formate]
- IC50 [1]: > 5000 nM
- IC50 (IRAK4): 1000 to 5000 nM

SMILES: Cn1cc(-c2cccc(-c3ncc(-c4cnn(C)c4)c(NCC(=O)O)n3)c2)cn1 [Example 26, {5-(1-Methyl-1H-pyrazol-4-yl)-2-[3-(1-methyl-1H-pyrazol-4-yl)-phenyl]-pyrimidin-4-ylamino}-acetic Acid Formate]
- IC50 [1]: > 5000 nM
- IC50 (IRAK4): > 5000 nM

SMILES: Cn1cc(-c2cccc(-c3ncc(-c4ccn(C)n4)c(NC4CCC4)n3)c2)cn1 [Example 27, Cyclobutyl-{5-(1-methyl-1H-pyrazol-3-yl)-2-[3-(1-methyl-1H-pyrazol-4-yl)-phenyl]-pyrimidin-4-yl}-amine]
- IC50 [1]: 1000 to 5000 nM
- IC50 (IRAK4): 100 to 1000 nM

SMILES: Cn1cc(-c2cccc(-c3ncc(-c4ccn(C)n4)c(NC4CC4)n3)c2)cn1 [Example 29]
- IC50 [1]: 1000 to 5000 nM
- IC50 (IRAK4): 100 to 1000 nM

SMILES: Cn1cc(-c2cccc(-c3ncc(-c4cnn(C)c4)c(NC4CC4)n3)c2)cn1 [Example 30]
- IC50 [1]: 100 to 1000 nM
- IC50 (IRAK4): 100 to 1000 nM

SMILES: Cn1cc(-c2cccc(-c3ncc(-c4cnn(C)c4)c(NC4CCC4)n3)c2)cn1 [Example 31]
- IC50 [1]: 100 to 1000 nM
- IC50 (IRAK4): 100 to 1000 nM

SMILES: Cn1cc(-c2cccc(-c3ncc(-c4ccn(C)n4)c(NC4CCCC4)n3)c2)cn1 [Example 33]
- IC50 [1]: 1000 to 5000 nM
- IC50 (IRAK4): 1000 to 5000 nM

SMILES: Cn1cc(-c2cccc(-c3ncc(-c4cnn(C)c4)c(NCCN)n3)c2)cn1 [Example 34]
- IC50 [1]: > 5000 nM
- IC50 (IRAK4): 1000 to 5000 nM

SMILES: Cn1cc(-c2cccc(-c3ncc(-c4cnn(C)c4)c(NCCN4CCCC4=O)n3)c2)cn1 [Example 39]
- IC50 [1]: > 5000 nM
- IC50 (IRAK4): 1000 to 5000 nM

SMILES: Cn1cc(-c2cccc(-c3ncc(-c4cnn(C)c4)c(NCCCN4CCCC4=O)n3)c2)cn1 [Example 40]
- IC50 [1]: > 5000 nM
- IC50 (IRAK4): 1000 to 5000 nM

SMILES: Cn1cc(-c2cccc(-c3ncc(-c4cnn(C)c4)c(NCCCN4CCOCC4)n3)c2)cn1 [Example 51]
- IC50 [1]: > 5000 nM
- IC50 (IRAK4): 1000 to 5000 nM

SMILES: Cn1cc(-c2cccc(-c3ncc(-c4cnn(C)c4)c(NCCN4CCNC4=O)n3)c2)cn1 [Example 58]
- IC50 [1]: 1000 to 5000 nM
- IC50 (IRAK4): 1000 to 5000 nM

SMILES: Cn1cc(-c2cccc(-c3ncc(-c4cnn(C)c4)c(NCC4CNCCO4)n3)c2)cn1 (centres unmarked) [Example 59]
- IC50 [1]: > 5000 nM
- IC50 (IRAK4): 100 to 1000 nM

SMILES: Cn1cc(-c2cccc(-c3ncc(-c4cnn(C)c4)c(NC[C@@H]4CCC(=O)N4)n3)c2)cn1 [Example 61]
- IC50 [1]: > 5000 nM
- IC50 (IRAK4): 100 to 1000 nM

SMILES: Cn1cc(-c2cccc(-c3ncc(-c4cnn(C)c4)c(NC[C@H]4CCNC4)n3)c2)cn1 [Example 64]
- IC50 [1]: 1000 to 5000 nM
- IC50 (IRAK4): 100 to 1000 nM

SMILES: Cn1cc(-c2cccc(-c3ncc(-c4ccn(C)n4)c(NCCCN4CCOC4=O)n3)c2)cn1 [Example 67]
- IC50 [1]: > 5000 nM
- IC50 (IRAK4): 100 to 1000 nM

SMILES: Cn1cc(-c2cccc(-c3ncc(-c4ccn(C)n4)c(NCCCO)n3)c2)cn1 [Example 68]
- IC50 [1]: 1000 to 5000 nM
- IC50 (IRAK4): 100 to 1000 nM

SMILES: Cn1cc(-c2cccc(-c3ncc(-c4ccn(C)n4)c(NCCN4CCOCC4)n3)c2)cn1 [Example 69]
- IC50 [1]: > 5000 nM
- IC50 (IRAK4): 100 to 1000 nM

SMILES: Cn1cc(-c2cccc(-c3ncc(-c4ccn(C)n4)c(NCCN4CCCC4=O)n3)c2)cn1 [Example 70]
- IC50 [1]: 100 to 1000 nM
- IC50 (IRAK4): 1000 to 5000 nM

SMILES: Cn1cc(-c2cccc(-c3ncc(-c4ccn(C)n4)c(NCC4(C)CCC4)n3)c2)cn1 [Example 71]
- IC50 [1]: > 5000 nM
- IC50 (IRAK4): > 5000 nM

SMILES: Cn1cc(-c2cccc(-c3ncc(-c4ccn(C)n4)c(NCCCN4CCCC4=O)n3)c2)cn1 [Example 72]
- IC50 [1]: > 5000 nM
- IC50 (IRAK4): 1000 to 5000 nM
